For one assay, the system named is rabbit antisera to HCS. In words: microcomplement fixation. The settings on record: antiserum to HCS at a dilution of 1:5500; HCS at 10 ng. It is filed as binding. As to the method:
(§1) Amino acid compositions of acid and carboxypeptidase hydrolysates were determined in an automatic amino acid analyzer (model 120B, Beckman Instruments). For the analysis of tryptophan, the methanesulfonic acid hydrolysates were used. Amino-terminal residue and sequence analyses were preformed by the dansyl-Edman procedure. Isoelectric focusing was carried out in 8 M urea. Prolactin activity was estimated by the pigeon crop-sac assay. Microcomplement fixation experiments were performed with rabbit antisera to HCS. The gel-double-diffusion technique of Ouchterlony was done using 1% agar in 0.01 M phosphate buffer of pH 7.5.

The subject of a further assay is pigeon crop-sac. Description: local crop-sac assay in the pigeon (prolactin / lactogenic activity). It is filed as in vivo. The settings on record: for Dry mucosal weight: Table 4, pigeon crop-sac test; for Dry mucosal weight / Pigeon crop-sac assay Response (dry mucosal weight): mean ± standard error; for Pigeon crop-sac assay Response (dry mucosal weight): Table 1, four birds. Here is the method: The growth-promoting activity of PL-HGH, the unpurified recombinant of Example 1 (fraction IV), [Cys(Cam)^53 -HGH-(1-134)], [Cys(Cam)^165, 182, 189 -HGH-(141-191)] and saline control were determined by the rat tibia test of Greenspan et al, Endocrinology 45, 455 (1949) and by the local crop-sac assay in the pigeon according to Lyons, Proc. Soc. Exp. Biol. 35, 645 (1937) and Nicoll, Endocrinology 80, 641 (1967). Amino acid compositions of acid and carboxypeptidase hydrolysates were determined in an automatic amino acid analyzer (model 120B, Beckman Instruments). For the analysis of tryptophan, the methanesulfonic acid hydrolysates were used. Amino-terminal residue and sequence analyses were preformed by the dansyl-Edman procedure. Isoelectric focusing was carried out in 8 M urea. Prolactin activity was estimated by the pigeon crop-sac assay. Microcomplement fixation experiments were performed with rabbit antisera to HCS. The gel-double-diffusion technique of Ouchterlony was done using 1% agar in 0.01 M phosphate buffer of pH 7.5. Exclusion chromatography of the purified fragments or the recombinant was performed on a Sephadex G-100 column (1.5×60 cm; V0 =35 ml) in 10 mM NH4 HCO3 (pH 8.4) at 21°. Circular dichroism (CD) spectra were obtained by a spectropolarimeter (Cary model 60) equipped with a circular dichroism attachment (model 6002). Microcomplement fixation was performed with the guinea pig antiserum to ovine prolactin. The gel double-diffusion technique of Ouchterlony was carried out with 1% agar in 10 mM phosphate buffer (pH 7.5). The prolactin activity was estimated by the local crop-sac assay in the pigeon.

In another assay the test system is antisera to HCS. Description: gel double-diffusion technique of Ouchterlony. It is filed as binding, rabbit. Particulars: HCS 10 μg, small fragment 40 μg. Here is the method:
as §1

A further assay concerns rat tibia. Description: rat tibia test (growth-promoting activity). The settings on record: for Response (tibia width): mean ± SEM; for Response (tibia width) / Rat tibia assay Response (tibia width): four animals; for Rat tibia assay Response (tibia width): Table 1, mean ± standard error; for growth-promoting activity, result in words: rat tibia test; for Response (rat tibia test): Table 7, total dose of 600 μg in 4 days, means ± S.E., four test animals; for Relative potency to HGH: Tables 5 and 8. Type of assay: in vivo. As to the method: The growth-promoting activity of PL-HGH, the unpurified recombinant of Example 1 (fraction IV), [Cys(Cam)^53 -HGH-(1-134)], [Cys(Cam)^165, 182, 189 -HGH-(141-191)] and saline control were determined by the rat tibia test of Greenspan et al, Endocrinology 45, 455 (1949) and by the local crop-sac assay in the pigeon according to Lyons, Proc. Soc. Exp. Biol. 35, 645 (1937) and Nicoll, Endocrinology 80, 641 (1967).
(§2) Plasmin fragments of reduced-carboxamidomethylation HGH and HCS were obtained as described above. Exclusion chromatography of the reaction mixture was performed at 22° C. on a Sephadex G-100 column (1.5×60 cm) in 0.01 M NH4 HCO3 of pH 8.4. For radioimmunoassay, the double-antibody procedure using a guinea pig antiserum to native HGH was performed. The growth-promoting activity was determined by the rat tibia test.

The test system of assay [1] is guinea pig antiserum to native HGH. In words: radioimmunoassay, double-antibody procedure. Type of assay: binding. Here is the method:
as §2

Where two headings read alike, the source gives them in different places. Starred links: 1 amine or outer side, 2 acyl side, 3 side chain; linkers in the order of their positions; H or OH if unused. Non-standard residues stand in square brackets, D forms with d. No end group written: not given here. Cys(Cam) = carboxamidomethylated cysteine, NC(=O)CSC[C@H](N[*:1])C(=O)[*:2]

Turning to Cys (Cam)^53 -HCS-(1-133) [N], in the assay with rabbit antisera to HCS, the complement fixed result is on record as “less than 10%”. Further, the Dry mucosal weight in the assay on pigeon crop-sac (total dose 40 (mg)) was 11.2 ± 0.7 mg; in the assay with pigeon crop-sac (total dose 120 (mg)), 12.0 ± 0.9 mg. Also, in the assay on pigeon crop-sac (pigeon crop-sac assay), the “prolactin (lactogenic) activity, result in words” value (“prolactin (lactogenic) activity” below) was “may have low activity but is much less than the native hormone”. For the same molecule, the precipitin reaction result with antisera to HCS is recorded as “weak precipitin line which showed non-identity with the native hormone”. Moreover, the “Response (tibia width)” value in the assay with rat tibia (Table 5, total dose 300 μg) is recorded as 185.5 ± 1.7 micrometers.
For “Cys(Cam)^53 -HGH-(1-134) [reference compound]”, the “radioimmunoassay inhibition / cross-reaction compared with HGH, in words” value in assay [1] is “only a slight cross-reaction”. Moreover, the “Pigeon crop-sac assay Response (dry mucosal weight)” value in the assay on pigeon crop-sac (total dose 0.65 nmol) is listed as 9.6 ± 1.8 mg; with pigeon crop-sac (total dose 1.95 nmol), 12.4 ± 2.7 mg. Besides, the “prolactin (lactogenic) activity” value in the assay with pigeon crop-sac (pigeon crop-sac assay) was “only a very small fraction of the comparative biological activities of the native human growth hormone”. For the same molecule, the “Relative potency to PLHGH” value in the assay with pigeon crop-sac (pigeon crop-sac assay, Tables 1 and 2) is on record as “less than 1%”; in the assay on rat tibia (rat tibia assay, Tables 1 and 2), 8%. Also, the “Rat tibia assay Response (tibia width)” value in the assay on rat tibia (total dose 3.26 nmol) was determined as 207.2 ± 1.5 micra; in the assay on rat tibia (total dose 9.78 nmol), 235.5 ± 1.5 micra. The “Response (tibia width)” value in the assay on rat tibia (Table 5, total dose 150 μg) was found to be 231.2 ± 1.6 micrometers; with rat tibia (Table 5, total dose 450 μg) it was 275.0 ± 3.8 micrometers. In addition, the “growth-promoting activity, result in words” value (“growth-promoting activity” for short) with rat tibia is reported as “only a very small fraction of the comparative biological activities of the native human growth hormone”.
Regarding “Cys(Cam)^165,182,189 -HGH-(141-191) (QTYSKFDTNSHNDDALLKNYGLLY[Cys(Cam)]FRKDMDKVETFLRIVQ[Cys(Cam)]RSVEGS[Cys(Cam)]GF; UniProt P01241 167-217, looked up, fragment) [COOH-terminal plasmin fragment of reduced-carboxamidomethylated HGH, reference compound]”, in the assay on pigeon crop-sac (total dose 20.3 nmol), the “Pigeon crop-sac assay Response (dry mucosal weight)” value is reported as 13.4 ± 1.2 mg. For the same molecule, the “prolactin (lactogenic) activity” value with pigeon crop-sac (pigeon crop-sac assay) is listed as “only a very small fraction of the comparative biological activities of the native human growth hormone”. For the same molecule, in the assay with rat tibia (total dose 9.78 nmol), the “Rat tibia assay Response (tibia width)” value is reported as 186.7 ± 4.4 micra. Also, in the assay with rat tibia, the “Response (rat tibia test)” value was 212 ± 7.3 microns. Also, the “growth-promoting activity” value is on record as “only a very small fraction of the comparative biological activities of the native human growth hormone” with rat tibia (182, 189 HGH-(141-191)]) and “about nil” with rat tibia (listed as the 51 residue fragment).
With Cys(Cam)^165, 182, 189, -HCS-141-191, in the assay on rabbit antisera to HCS, the complement fixed entry is recorded as “less than 10%”. In the assay with pigeon crop-sac (total dose 120 (mg)), this molecule yielded a Dry mucosal weight of 6.5 ± 1.4 mg. For the same molecule, in the assay on antisera to HCS, the precipitin reaction result was “failed to give a precipitin reaction”.
For the molecule “[Cys(Cam)HCS-(1-133)] + [Recombinant II, [Cys(Cam)HCS-(1-133)] + [Cys(Cam)^165,182,189 -HGH-(141-191)]]”, in assay [1], the “antigen concentration needed to give the same degree of inhibition, relative to HGH” value is recorded as “at least 30 times”. Further, in assay [1], the “radioimmunoassay inhibition / cross-reaction compared with HGH, in words” value is “much less effective than HGH”. In addition, the “Response (tibia width)” value with rat tibia (Table 5, total dose 30 μg) worked out at 218.5 ± 9.8 micrometers; in the assay on rat tibia (Table 5, total dose 90 μg) it was 229.0 ± 4.1 micrometers. Besides, the “Relative potency to HGH” value in the assay on rat tibia (rat tibia assay) was found to be 10%. Moreover, the “growth-promoting activity” value was “less active in comparison with that of I” in the assay with rat tibia; “measurable growth promoting activity but at a reduced level of potency than the aforesaid recombinants” in the assay with rat tibia (listed as recombinant of Cys(Cam)^53 -HCS-(1-133) and Cys(Cam)^165, 182, 189 -HGH-(141-191)).
For “[Cys(Cam)^53 -HGH(1-134)] + [Recombinant I, [Cys(Cam)^53 -HGH(1-134)] + [Cys(Cam^165,182,189 -HCS-(141-191)]]”, the “radioimmunoassay inhibition / cross-reaction compared with HGH, in words” value in assay [1] is on record as “at low concentrations gave nearly identical inhibition to that of HGH”; in assay [1] (listed as recombinant of Cys (Cam)^53 -HGH-(1-134) and Cys (Cam)^165, 182, 189 -HCS-(141-1)) it was “nearly full immunoreactivity against the antiserum to HGH”. Also, the “Response (tibia width)” value with rat tibia (Table 5, total dose 20 μg) turned out to be 212.0 ± 4.7 micrometers; in the assay with rat tibia (Table 5, total dose 60 μg), 259.2 ± 2.9 micrometers. Further, the “Relative potency to Cys(Cam)^53 HGH-(1-134)” value in the assay with rat tibia (rat tibia assay, Table 5) amounted to 491%. Further, the “Relative potency to HGH” value in the assay with rat tibia (rat tibia assay) turned out to be 50%. The “growth-promoting activity” value in the assay with rat tibia is reported as “significant growth-promoting activity”.
For the molecule “[Cys(Cam)^53 ]-HGH(1-134) + [Nle^170, Ala^165, 182, 189 ]-HGH(145-191) [Recombinant IV]”, the “Response (tibia width)” value is on record as 248.5 ± 7.7 micrometers in the assay with rat tibia (Table 8, total dose 20 μg) and 297.2 ± 10.0 micrometers with rat tibia (Table 8, total dose 60 μg). The “Relative potency to HGH” value in the assay with rat tibia (rat tibia assay) is reported as 113%.
As to “[Cys(Cam)^ 53 ]-HGH(1-134) + [Nle^170, Ala^165, 182, 189 ]-HGH(140-191) [Recombinant III]”, the “Response (tibia width)” value in the assay with rat tibia (Table 8, total dose 20 μg) amounted to 249.2 ± 9.2 micrometers; in the assay on rat tibia (Table 8, total dose 60 μg), 286.0 ± 2.1 micrometers. In the assay on rat tibia (rat tibia assay), the “Relative potency to HGH” value stood at 100%.
For “[Lys^135,136,138, Glu^137,139, Nle^170,Ala^165,182,189 ]-HGH-(135-191)”, the “Response (rat tibia test)” value with rat tibia is 192 ± 3.5 microns.
With “[Nle^170, Ala^165,182,189 ]-HGH-(140-191)”, the “Response (rat tibia test)” value with rat tibia amounted to 197 ± 4.2 microns.
For “[Nle^170, Ala^165,182,189 ]-HGH-(145-191)”, the “Response (rat tibia test)” value with rat tibia turned out to be 189.5 ± 7.5 microns.
On to human growth hormone [HGH], for which the “Response (tibia width)” value stood at 242.8 ± 3.8 micrometers in the assay with rat tibia (Table 5, total dose 20 μg); 282.8 ± 1.5 micrometers with rat tibia (Table 5, total dose 60 μg); 245.0 ± 9.5 micrometers with rat tibia (Table 8, total dose 20 μg); 290.2 ± 2.9 micrometers in the assay with rat tibia (Table 8, total dose 60 μg).

B1: human chorionic somatomammotropin (protein, UniProt P0DML2 27-217, looked up)
Chorionic somatomammotropin …: VQTVPLSRLFDHAMLQAHRAHQLAIDTYQEFEETYIPKDQKYSFLHDSQTSFCFSDSIPTPSNMEETQQKSNLELLRISLLLIESWLEPVRFLRSMFANNLVYDTSDSDDYHLLKDLEEGIQTLMGRLEDGSRRTGQILKQTYSKFDTNSHNHDALLKNYGLLYCFRKDMDKVETFLRMVQCRSVEGSCGF
notes: native human choriomammotropin hormone
In the case of B1, in the assay with rabbit antisera to HCS, the complement fixed entry is “about 90%”. Besides, the Dry mucosal weight turned out to be 24.2 ± 2.9 mg in the assay on pigeon crop-sac (total dose 4 (mg)) and 30.5 ± 3.7 mg in the assay on pigeon crop-sac (total dose 12 (mg)). In addition, the precipitin reaction result in the assay with antisera to HCS is “single sharp precipitin line”.

The values above are taken from patent US4189426A, “Recombinant hormonal compositions and method” (Hoffmann-La Roche, Inc., priority 1978, dated 1980).
